# Experimental data from patent US11253610B2, “Plant virus particles for delivery of antimitotic agents” (CASE WESTERN RESERVE UNIVERSITY, priority 2015, dated 2022).
# Numbered stars: 1 amine (or outer) side, 2 acyl side, 3 side chain; on linkers, the order of the positions; unused ones are H or OH. Square brackets hold non-standard residues; d marks the D form. Peptide text beside a SMILES is read from it. * marks the point of attachment. Dolaproine = CO[C@@H]([C@@H]1CCCN1)[C@@H](C)C(=O)O; Hexanoyl(6-maleimido) = O=C1C=CC(=O)N1CCCCCC(=O)*; Dil = CC[C@H](C)[C@H](NC)[C@@H](CC(=O)O)OC; PABC = O=C(OCc1ccc(N[*:1])cc1)[*:2]; X1 = C[C@@H](N*)[C@@H](O)c1ccccc1; Cit = NC(=O)NCCC[C@H](N)C(=O)O; NMeV = CN[C@H](C(=O)O)C(C)C
# What was measured:
# Karpas 299 cells = experiment: Cell viability assay (Alamar Blue); assay type: cell-based, human; conditions: 72 hours incubation, read-out: IC50 (drug concentration where half of the cells are killed)
# Method: Cell culture. Karpas 299 cells (ATCC) were maintained in RPMI-1640 at 37° C. in a 5% CO2 humidified atmosphere. The medium was supplemented with 20% (v/v) heat-inactivated fetal bovine serum (FBS), and 1% (v/v) penicillin-streptomycin. All reagents were obtained from Gibco.
# Cell viability assay. Cells at a concentration of 10,000 cells/mL were seeded in a sterile, tissue culture-treated, 96-well clear bottom plate for 24 hours at 37° C. in a 5% CO2 humidified atmosphere. Cells were then incubated with fresh media with 0.02 nM to 200 nM VcMMAE for 72 hours. At 92 hours, Alamar Blue (ThermoFisher) was added, and cell viability was measured at 96 hours according to the manufacturer's instructions using a fluorescence plate reader with […].
# To evaluate the efficacy of TMV-vcMMAE, cell viability assays were performed using Alamar Blue assay Alamar Blue reagent is primarily made of resazurin, a nontoxic cell permeable non-fluorescent blue molecule. […]
# Karpas 299 cells were seeded for 24 hours and then incubated with free vcMMAE or TMV-MMAE for 72 hours. At 92 hours, Alamar Blue was added and the cells fluorescence was measured after 4 hours of incubation at 540 nm excitation and 610 nm emission. The results for both free vcMMAE and TMV-MMAE are plotted in FIG. 4, and the IC50 values were calculated. […]
# [1] = vary with assay set up, time course and cell lines used; read-out: IC50 values in the literature; cited from earlier work
smiles,measurement,setting,value
"CC[C@H](C)[C@@H]([C@@H](CC(=O)N1CCC[C@H]1[C@H](OC)[C@@H](C)C(=O)N[C@H](C)[C@@H](O)c1ccccc1)OC)N(C)C(=O)[C@@H](NC(=O)[C@H](C(C)C)N(C)C(=O)OCc1ccc(NC(=O)[C@H](CCCNC(N)=O)NC(=O)[C@@H](NC(=O)CCCCCN2C(=O)C=CC2=O)C(C)C)cc1)C(C)C [vcMMAE, valine-citrulline monomethyl auristatin E] ({Hexanoyl(6-maleimido)}-V[Cit][PABC][NMeV]V[Dil][Dolaproine]-X1)",IC50,Karpas 299 cells,~25.8 nM
same,IC50,[1],~5 nM
